US20210121456A1, “USE OF METHYLNALTREXONE TO ATTENUATE TUMOR PROGRESSION” (Salix Pharmaceuticals, Inc., priority 2014, published 2021)

What was measured:
Lewis lung cancer model = conditions: infusion of MNTX; cited from earlier work
colectomy patients = conditions: more than 500 colectomy patients, two randomized clinical trials; cited from earlier work
[1] = tested on: subjects with advanced medical illness and opioid-induced constipation; experiment: Study 1: double-blind, randomized, placebo-controlled study of subcutaneous methylnaltrexone; type: in vivo, human
Method: (§1) A double-blind, randomized, placebo-controlled study of subcutaneous methylnaltrexone (MNTX) was conducted in subjects with advanced medical illness and a current history of opioid-induced constipation. To satisfy eligibility criteria for enrollment, subjects were required to be on stable doses of laxatives and opioid analgesics. In the context of the study, a stable dose of opioid analgesics was defined as no reduction in the dose of opioid analgesic of ≥50% for at least three days before the first dose of MNTX. A stable dose of laxatives was defined as having a standing laxative order (and not PRN, or as-needed) for at least three days before the first dose of MNTX. A diagnosis of constipation was provided if the subject had fewer than 3 bowel movements during the previous week by history and no clinically notable laxation in the 24 hours before the first dose of MNTX, or no clinical notable laxation in the 48 hours before the first dose of MNTX.
Eligible subjects were randomized to one of two treatment groups: MNTX 0.15 mg/kg (e.g., 8 mg for patients <62 kg body weight and 12 mg for patients ≥62 kg body weight) or placebo. Each treatment was administered every other day (QOD) subcutaneously for two weeks. Injections were administered subcutaneously in either the shoulder area, buttocks, abdomen, thighs or extremities. Rescue-laxatives, enemas or manual disimpactions were not administered within 4 hours before or after each dose of MNTX. Endpoints included: (1) the proportion of subjects with rescue-free laxation within 4 hours of the first dose of study drug, and (2) the proportion of subjects with ≥2 rescue-free laxations within 4 hours post dosing over 4 doses of study drug (the first week of the two-week treatment period). One hundred and thirty-four (134) subjects were enrolled and evaluated, including 78 patients with advanced cancers and 56 patients with other advanced illness, including COPD, cardiovascular disease and severe neurologic disease. Seventy-one (71) of the 134 subjects were randomized to the placebo group, and sixty-two (62) of the 134 subjects were randomized to MNTX treatment group. The co-primary efficacy endpoints of this study were: 1) the proportion of patients with laxation within 4 hours after the first dose of study drug, and 2) the proportion of patients with laxation within 4 hours after 2 of the first 4 doses (the first week of double-blind treatment). The primary endpoint was laxation within 4 hours. Secondary endpoints included the use of rescue medication and frequency of symptoms within 24 hours. […]

[2] = Plasma levels after oral administration; type: in vivo
Method: Methylnaltrexone is rapidly absorbed after oral administration from the stomach and bowel. Initial plasma levels of the drug are seen within 5-10 minutes of the administration of non-enteric coated compound.

[3] = tested on: subjects with advanced medical illness and opioid-induced constipation; experiment: Study 2: double-blind, randomized, placebo-controlled study of subcutaneous MNTX (fixed dose); type: in vivo, human
Method: as §1, with “of subcutaneous MNTX was conducted” for “of subcutaneous methylnaltrexone (MNTX) was conducted”, “subject had (a) fewer than” for “subject had fewer than”, “MNTX, or (b) no clinical” for “MNTX, or no clinical”
Eligible subjects were randomized to receive MNTX or placebo every other day during a 14-day, double-blind period. Subjects weighing 38 kg to <62 kg received 0.4 mL SC MNTX (8 mg) or equal volume of placebo. Subjects weighing ≥62 kg received 0.6 mL SC MNTX (12 mg) or equal volume of placebo. Injections were administered subcutaneously in either the shoulder area, buttocks, abdomen, thighs or extremities, and rescue-laxatives, enemas or manual disimpactions were not administered within 4 hours before or after each dose of test article.
The endpoint assessed was the proportion of subjects with rescue-free laxation response within 4 hours after at least two of the first four doses. Two hundred and twenty-nine (229) subjects were enrolled and evaluated, including 151 patients with advanced cancers and 78 patients with other advanced illness (e.g., cardiovascular, pulmonary or neurologic disorders). Of which 229 subjects which enrolled, 113 were randomized to the placebo group and 116 were randomized to the MNTX treatment group. Of the patients who completed the double-blind phase, 142 (placebo 69, MNTX 73) elected to proceed with a 10-week open label phase of subcutaneous MNTX at PRN dosing.

[4] = MNTX 0.15 mg/kg SC QOD, double-blind
[5] = regardless of the time after dose

SMILES: C[N@+]1(CC2CC2)CC[C@]23c4c5ccc(O)c4O[C@H]2C(=O)CC[C@@]3(O)[C@H]1C5.[Br-] [MNTX, (R)—N-(cyclopropylmethyl) noroxymorphone methobromide]
- tumor growth and metastasis (Lewis lung cancer model): dramatically reduced growth and metastasis
- safety and perioperative analgesia (colectomy patients): safely given
- subjects with improvement in constipation distress ([1]; Day 1): 53%
- subjects for whom the bowel status was improved (second global rating, 'Likewise') ([1]; Day 7): 69.4%
- subjects who rated their bowel status improved (global rating scale) ([1]; Day 7): 73.5%
- subjects with improvement in constipation distress ([1]; Day 7): 64%
- subjects for whom the bowel status was improved (second global rating, 'Likewise') ([1]; Day 14): 67.9%
- subjects who rated their bowel status improved (global rating scale) ([1]; Day 14): 67.9%
- subjects with improvement in constipation distress ([1]; Day 14): 60%
- subjects with rescue-free laxation within 4 hours after at least 2 of the first 4 doses ([1]; MNTX 0.15 mg/kg SC QOD): 51.6%
- subjects with rescue-free laxation within 4 hours after at least 2 of the first 4 doses (number) ([1]; MNTX 0.15 mg/kg SC QOD): Thirty-two
- subjects with rescue-free laxation within 4 hours after at least 4 of the maximum 7 doses ([1]; MNTX 0.15 mg/kg SC QOD): 38.7%
- subjects with rescue-free laxation within 4 hours after at least 4 of the maximum 7 doses (number) ([1]; MNTX 0.15 mg/kg SC QOD): twenty-four
- subjects with rescue-free laxation within 4 hours after the first dose [1, 4]: 48.4%
- subjects with rescue-free laxation within 4 hours after the first dose (number) [1, 4]: 30 subjects
- median time to rescue-free laxation after the first dose ([1]; based on the subjects who had laxation): 1.0 h
- subjects using enemas ([1]; during double-blind treatment (baseline 12.7%)): 23.8%
- subjects using osmotic agents ([1]; during the study (baseline 30.2%)): 33.3%
- subjects with at least one rescue-free laxation ([1]; first week of treatment): 95.2%
- rescue-free laxations within 4 hours after any dose rated as moderate, considerable, or great difficulty ([1]; in vivo): 33.0%
- subjects with rescue-free laxations within 4 hours after any individual dose ([1]; range over doses): 37.3-48.4%
- subjects with rescue-free laxations within 24 hours after any individual dose ([1]; range over doses): 55.4-66.0%
- subjects with at least three rescue-free laxations per week [1, 5]: 67.7%
- subjects with at least three rescue-free laxations per week (number) [1, 5]: 42 subjects
- watery bowel movements ([1]; rescue-free laxations within 4 hours after any dose): 15.9%
- subjects with at least one rescue-free laxation ([1]; second week of treatment): 91.2%
- plasma levels with an enteric coating which prevents gastric absorption ([2]; enteric coated, oral): lower plasma levels
- time to initial plasma levels after oral administration ([2]; non-enteric coated compound): 5 to 10 min
- subjects with rescue-free laxation response within 4 hours after at least 2 of the first 4 doses ([3]; ITT population, first week, 8 or 12 mg SC QOD): 62.9%
- number of rescue-free laxations within 24 hour post dosing per week ([3]; Week 1): 4.9
- number of total laxations within 24 hour post dosing per week ([3]; Week 1): 4.9
- number of rescue-free laxations within 24 hour post dosing per week ([3]; Week 2): 3.2
- number of total laxations within 24 hour post dosing per week ([3]; Week 2): 3.2
- improvement in the stool symptoms domain of the PAC-SYM ([3]; compared with the placebo group, p=0.0920): more pronounced
- subjects who used enemas ([3]; double-blind period): 17%
- subjects who used rescue laxatives ([3]; double-blind period): 27%
- subjects who required manual disimpaction ([3]; double-blind period, either group): < 5%
- opioid use ([3]; effect of MNTX administration): not affected
- efficacy versus placebo for the primary and all secondary efficacy endpoints ([3]; fixed doses 8 mg or 12 mg SC QOD): statistically superior to placebo
- median time to first rescue-free laxation after the first dose ([3]; in vivo): 0.8 h
- subjects with rescue-free laxation within 4 hours after at least 4 of the maximum 7 doses ([3]; in vivo): 62.2%
- subjects with rescue-free laxation within 4 hours of the first dose ([3]; in vivo): 69.8%
